In patent US12474337B2, “Therapeutic agent for autoimmune diseases or allergy, and method for screening for the therapeutic agent” (OSAKA UNIVERSITY, priority 2009, dated 2025):

Tested on: dendritic cells
Experiment: Transwell overlaid with type 1 collagen or HMVEC-dLy monolayer, chemotaxis to CCL21 with and without Sema3A, after myosin II or Rho kinase inhibition
Format: cell-based, mouse
Protocol: An uncoated Transwell (pore diameter 5.0 μm; Corning) was placed in a 24-well plate containing CCL21 or CSCL12 in 0.6 ml of RPM1 containing 0.1% BSA. 1×10^5 dendritic cells in 0.1 ml of solution were added to the upper well of the Transwell, and incubated for 3 hours at 37° C. The cells in the […] chamber were ablated for 5 minutes with 5 mM PBS-EDTA, and counted by Guava. Fibronectin ([…]), type 1 collagen (3.0 mg/ml) or lymphatic endothelial cells were laid over the membrane of the top chamber for purposes of in vitro migration assay. In brief, 2×10^4 SVEC4-10 or HMVEC-dLy cells were seeded on the top or bottom surface of a Transwell insert coated with 2 μg/ml of fibronectin. […]
BMDC cells that had been treated for 30 minutes at 37° C. with 50 μM of blebbistatin or 30 μM of Y-27632 were applied to the upper chamber of a Transwell (pore diameter: 5 μm) overlaid with 3 mg/ml of type 1 collagen (left panel) and an HMVEC-dLy monolayer (right panel), and chemotaxis in response to CCL21 was measured in the […] chamber with and without Sema3A. The overall difference between groups was evaluated by one-way ANOVA. […]
A Transwell test was performed by the following methods. […] The cells in the lower chamber were ablated for 5 minutes by treatment with 5 mM of PBS-EDTA, and counted by Guava ViaCount assay on a Guava PCA system. […]

Row | Compound | effect of Sema3A on dendritic cell trafficking after inhibitor treatment (DC cells treated 30 minutes at 37° C. with 50 μM blebbistatin) | effect of Sema3A on dendritic cell trafficking after inhibitor treatment (DC cells treated 30 minutes at 37° C. with 30 μM Y-27632)
1 | Cc1ccc2c(c1)C(=O)C1(O)CCN(c3ccccc3)C1=N2 (centres unmarked) [blebbistatin] | disappeared | 
2 | C[C@@H](N)[C@H]1CC[C@H](C(=O)Nc2ccncc2)CC1 [Y-27632] |  | disappeared
